Several values for one entry are separate records, joined by “and”; a condition that tells them apart may be missing. Equal values may be shown once. Toxic doses and inconclusive results are not listed. How the source made its calls: active means survival T/C of 150% or more; inactive means T/C below 125% in these data.
System: P388 leukemia ip, CD2F1 mice, survival T/C
Assay: NCI In Vivo Anticancer Drug Screen. Data for tumor model P388 Leukemia (intraperitoneal) in CD2F1 (CDF1) mice
Conditions: endpoint: median survival time, higher = longer survival
In short: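 Mice carrying the transplanted tumor received test compound or vehicle. Survival was recorded in each group, and the value is the treated-group measurement divided by that of the vehicle-treated control group.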

[1] = dose: 100.0 mg/kg/injection, schedule: Q04DX002 (ip), vehicle: Klucel (hydroxypropylcellulose) (HPC)
[2] = dose: 50.0 mg/kg/injection, schedule: Q01DX009 (ip), vehicle: saline
[3] = dose: 50.0 mg/kg/injection, schedule: Q01DX005 (ip), vehicle: Klucel (hydroxypropylcellulose) (HPC)
[4] = dose: 50.0 mg/kg/injection, schedule: Q01DX005 (ip), vehicle: saline with Tween-80
[5] = dose: 100.0 mg/kg/injection, schedule: Q01DX005 (ip), vehicle: saline with Tween-80
[6] = dose: 200.0 mg/kg/injection, schedule: Q01DX005 (ip), vehicle: saline with Tween-80
[7] = dose: 100.0 mg/kg/injection, schedule: Q01DX001 (ip), vehicle: saline with Tween-80
[8] = dose: 200.0 mg/kg/injection, schedule: Q01DX001 (ip), vehicle: saline with Tween-80
[9] = dose: 400.0 mg/kg/injection, schedule: Q01DX001 (ip), vehicle: saline with Tween-80
[10] = dose: 100.0 mg/kg/injection, schedule: Q01DX005 (ip), vehicle: Klucel (hydroxypropylcellulose) (HPC)
[11] = dose: 200.0 mg/kg/injection, schedule: Q01DX005 (ip), vehicle: Klucel (hydroxypropylcellulose) (HPC)

Measured: T/C

CCC(C)C1(O)OC2CC3(C)OC(=CC3=O)/C(C)=C\C3OC(=O)C1(C)C32 (centres undefined)
inactive: dose: 10.0 mg/kg/injection, schedule: Q01DX005 (ip), vehicle: saline + alcohol 96 % of control | dose: 20.0 mg/kg/injection, schedule: Q01DX005 (ip), vehicle: saline + alcohol 100 % of control | dose: 40.0 mg/kg/injection, schedule: Q01DX005 (ip), vehicle: saline + alcohol 105 % of control | dose: 80.0 mg/kg/injection, schedule: Q01DX005 (ip), vehicle: saline + alcohol 99 % of control

Oc1ccc([C@H]2Oc3c(c(O)cc4c3C3c5c(O)cc(O)cc5OC(c5ccc(O)cc5)(O4)[C@H]3O)CC2O)cc1 (some centres undefined)
inactive: dose: 1.0 mg/kg/injection, schedule: Q01DX005 (ip), vehicle: Klucel (hydroxypropylcellulose) (HPC) 103 % of control | dose: 2.0 mg/kg/injection, schedule: Q01DX005 (ip), vehicle: Klucel (hydroxypropylcellulose) (HPC) 103 % of control | dose: 4.0 mg/kg/injection, schedule: Q01DX005 (ip), vehicle: Klucel (hydroxypropylcellulose) (HPC) 110 % of control | dose: 8.0 mg/kg/injection, schedule: Q01DX005 (ip), vehicle: Klucel (hydroxypropylcellulose) (HPC) 103 % of control

Clc1ccc(N=C/C=C\C=C/Nc2ccc(Cl)cc2)cc1
inactive: dose: 5.0 mg/kg/injection, schedule: Q01DX009 (ip), vehicle: saline with Tween-80 108 % of control | dose: 10.0 mg/kg/injection, schedule: Q01DX005 (ip), vehicle: saline with Tween-80 108 % of control | dose: 10.0 mg/kg/injection, schedule: Q01DX009 (ip), vehicle: saline with Tween-80 97 % of control | dose: 20.0 mg/kg/injection, schedule: Q01DX005 (ip), vehicle: saline with Tween-80 95 % of control | dose: 20.0 mg/kg/injection, schedule: Q01DX009 (ip), vehicle: saline with Tween-80 95 % of control | dose: 40.0 mg/kg/injection, schedule: Q01DX005 (ip), vehicle: saline with Tween-80 100 % of control | dose: 80.0 mg/kg/injection, schedule: Q01DX005 (ip), vehicle: saline with Tween-80 98 % of control | dose: 160.0 mg/kg/injection, schedule: Q01DX005 (ip), vehicle: saline with Tween-80 93 % of control

Oc1ccccc1/C=N/NC(=S)NC1CC2C=CC1C2 (centres undefined)
inactive: dose: 12.5 mg/kg/injection, schedule: Q01DX009 (ip), vehicle: olive oil, sesame oil, peanut oil 100 % of control | dose: 25.0 mg/kg/injection, schedule: Q01DX009 (ip), vehicle: olive oil, sesame oil, peanut oil 102 % of control | dose: 50.0 mg/kg/injection, schedule: Q01DX009 (ip), vehicle: olive oil, sesame oil, peanut oil 97 % of control | dose: 100.0 mg/kg/injection, schedule: Q01DX009 (ip), vehicle: olive oil, sesame oil, peanut oil 97 % of control | dose: 200.0 mg/kg/injection, schedule: Q01DX009 (ip), vehicle: olive oil, sesame oil, peanut oil 102 % of control | dose: 400.0 mg/kg/injection, schedule: Q01DX009 (ip), vehicle: olive oil, sesame oil, peanut oil 97 % of control

COC(=O)/C=C/c1cccc[n+]1[O-]
inactive: dose: 25.0 mg/kg/injection, schedule: Q01DX005 (ip), vehicle: water 107 % of control | dose: 50.0 mg/kg/injection, schedule: Q01DX005 (ip), vehicle: water 107 % of control | dose: 100.0 mg/kg/injection, schedule: Q01DX005 (ip), vehicle: water 109 % of control | dose: 200.0 mg/kg/injection, schedule: Q01DX005 (ip), vehicle: water 107 % of control

O=C(O)c1cc(CCCC(=O)c2cc(C(=O)O)c(O)c3ccccc23)c2ccccc2c1O
inactive: [1] 90 % of control

O=C1CCCCC1O (centres undefined)
inactive: [2] 104 % of control and 106 % of control | dose: 100.0 mg/kg/injection, schedule: Q01DX009 (ip), vehicle: saline 100 % of control and 103 % of control | dose: 200.0 mg/kg/injection, schedule: Q01DX009 (ip), vehicle: saline 110 % of control and 97 % of control | dose: 400.0 mg/kg/injection, schedule: Q01DX009 (ip), vehicle: saline 88 % of control and 95 % of control

Cn1c2c(c3cc(Cl)ccc31)-c1ncncc1CC2
inactive: dose: 12.5 mg/kg/injection, schedule: Q01DX005 (ip), vehicle: Klucel (hydroxypropylcellulose) (HPC) 97 % of control | dose: 25.0 mg/kg/injection, schedule: Q01DX005 (ip), vehicle: Klucel (hydroxypropylcellulose) (HPC) 97 % of control | [3] 101 % of control | [1] 92 % of control

C#CCNC1=CC(=O)CCC1
inactive: dose: 60.0 mg/kg/injection, schedule: Q01DX005 (ip), vehicle: saline 100 % of control | dose: 120.0 mg/kg/injection, schedule: Q01DX005 (ip), vehicle: saline 106 % of control | dose: 240.0 mg/kg/injection, schedule: Q01DX005 (ip), vehicle: saline 118 % of control

CC1(C)OC2(C)CCC1C1C2N1C(=O)C1CC1 (centres undefined)
inactive: [4] 97 % of control | [5] 104 % of control | [6] 105 % of control

CCSc1ccc(C(=O)C2(C)Cc3ccccc3CN2)cc1 (centres undefined)
inactive: [7] 100 % of control | [8] 99 % of control | [9] 98 % of control

Cc1ccc(CN2CCN(Cc3ccc(C)o3)C(C)C2)o1 (centres undefined)
inactive: dose: 50.0 mg/kg/injection, schedule: Q01DX005 (ip), vehicle: saline 101 % of control | dose: 100.0 mg/kg/injection, schedule: Q01DX005 (ip), vehicle: saline 101 % of control | dose: 200.0 mg/kg/injection, schedule: Q01DX005 (ip), vehicle: saline 100 % of control

Cc1ccccc1N=C1SCC(=O)N1c1ccccc1C
inactive: [4] 96 % of control | [5] 99 % of control | [6] 91 % of control

COc1ccc(CC2=NCCc3cc(OC)c(OC)cc32)cc1OC
inactive: dose: 22.0 mg/kg/injection, schedule: Q01DX009 (ip), vehicle: saline 104 % of control | dose: 33.0 mg/kg/injection, schedule: Q01DX009 (ip), vehicle: saline 103 % of control | [2] 103 % of control | dose: 75.0 mg/kg/injection, schedule: Q01DX009 (ip), vehicle: saline 102 % of control

CC/C(=N\OC(=O)Nc1ccccc1)c1ccc(OC(=O)Nc2ccccc2)cc1
inactive: [4] 99 % of control | [5] 95 % of control | [6] 104 % of control

CCC1C(=O)OCCOCCOCCOCCOC1=O
inactive: dose: 100.0 mg/kg/injection, schedule: Q04DX003 (ip), vehicle: Klucel (hydroxypropylcellulose) (HPC) 106 % of control | dose: 200.0 mg/kg/injection, schedule: Q04DX003 (ip), vehicle: Klucel (hydroxypropylcellulose) (HPC) 100 % of control | dose: 400.0 mg/kg/injection, schedule: Q04DX003 (ip), vehicle: Klucel (hydroxypropylcellulose) (HPC) 107 % of control

N/C(=N\N=C\c1cccnc1)SCCCCBr
inactive: dose: 0.78 mg/kg/injection, schedule: Q01DX001 (ip), vehicle: saline 100 % of control | dose: 0.78 mg/kg/injection, schedule: Q01DX009 (ip), vehicle: saline 110 % of control | dose: 1.56 mg/kg/injection, schedule: Q01DX001 (ip), vehicle: saline 101 % of control and 110 % of control | dose: 3.12 mg/kg/injection, schedule: Q01DX001 (ip), vehicle: saline 110 % of control

O=C(OCC(Cl)(Cl)Cl)N1[C@H]2C3=C(CCC3)[C@@H]([C@H]3O[C@H]32)N1C(=O)OCC(Cl)(Cl)Cl
inactive: [3] 97 % of control | [10] 97 % of control | [11] 97 % of control

CCN(CC)CCOC(=O)CC1CCCCC1
inactive: dose: 50.0 mg/kg/injection, schedule: Q01DX009 (ip), vehicle: saline with Tween-80 102 % of control | dose: 100.0 mg/kg/injection, schedule: Q01DX009 (ip), vehicle: saline with Tween-80 100 % of control | dose: 200.0 mg/kg/injection, schedule: Q01DX009 (ip), vehicle: saline with Tween-80 99 % of control

COC(=O)Nc1nc2ccc(-c3c(C)oc(C)c3C(=O)O)cc2[nH]1
inactive: [4] 97 % of control | [5] 97 % of control | [6] 87 % of control

CCCCCCCC(=O)Nc1nnc(SCCCCCCCCCCCCSc2nnc(NC(=O)CCCCCCC)s2)s1
inactive: [3] 90 % of control | [10] 89 % of control | [11] 86 % of control

CNc1nnnc2c1sc1ccccc12
inactive: [7] 105 % of control | [8] 102 % of control | [9] 104 % of control
